Measured values taken from publication PMC12851007 (Angewandte Chemie (International Ed. in English), 2025).
Where a SMILES comes first, the peptide text is derived from it.

Assays:
[1] = Dual-channel assay, CF channel, POPC vesicles; assay type: biochemical; conditions: 12.5 µM POPC⸧CX4/LCG-LUVs and 12.5 µM POPC⸧CF-LUVs in 10 mM Hepes, 175 mM glucose, pH 7.5, 25 °C; λexc 525/λem 545 nm; error = SD of fit, n = 1
Excerpt: (§1) With the established identical extravesicular conditions in both assays, we further envisaged a simultaneous measurement of both assays within the same solution to enhance the comparability of the measurements. This became possible after optimization of the excitation and emission wavelengths. […] A further optimization was required, because the dye concentrations in the CF assay and the CX4/LCG assay are largely different.^[ [51], [52] ^] Consequently, simultaneous monitoring requires the detection of a low amount of LCG in the presence of a high concentration of the much more brightly fluorescent CF, which challenges the dynamic range of a typical fluorescence spectrometer in a dual‐channel measurement. To reduce the fluorescence read‐out of CF, the excitation wavelength was shifted from the absorption maximum at ca. 490 nm to 525 nm, where CF has a much lower absorbance, and the emission in the CF channel was shifted from its maximum at ca. 515 nm to 545 nm to further reduce the fluorescence of CF. To maintain a high LCG fluorescence, excitation was performed at the absorption maximum at 369 nm. Since CF has a residual absorbance at this excitation wavelength, emission in the LCG channel was monitored at 475 nm instead of 502 nm to eliminate spill‐over of CF fluorescence into the LCG channel. […]
(§2) Time-dep endent fluores cence intensit y traces, I (t), were subsequentl y normalized to fractional intensities, If(t), using equation (1) and the concentration- dependent fractional intensities just before the addition of th e calibration co cktail, I f, w ere then normaliz ed to fr actional membran e activities, Y, using equation (2). The fractional membrane activities, Y, were subsequently plotted against the peptide concentration, c, and anal ysed using the Hill equation (3) to obtain the effective molar concentration, EC 50, and the Hill coefficient, n. For peptides with too low activity to determine Y max ex perimentall y, Y max was fixed at 1.0 during fitting. […]
(§3) Dual-Channel Measurements
Vesicles w ere prep ared a s described abov e (se e en try (4) in Table S2 and entry (3) in Table S3) and eluted with freshl y prepared 10 mM Hepes, 175mM glucos e, pH 7.5 i n the size exclusion chromatograph y. […] The fluorescence intensity w as simultaneous l y r eco rded in the CF chann el ( λ exc = 525 nm, λ em = 545 nm) and in the LCG channel ( λ exc = 369 nm, λ em = 475 nm) with an ex citation slit width of 5 nm and an emission slit width of 5 n m during addition of 20 µL peptide stock solution of varying concentrations at 60 s and 20 µL of a calibration

[2] = Dual-channel assay, CX4/LCG channel, POPC vesicles; assay type: in vitro ADME; conditions: 175 mM glucose; for EC50: 12.5 µM POPC⸧CX4/LCG-LUVs and 12.5 µM POPC⸧CF-LUVs in 10 mM Hepes, pH 7.5, 25 °C, λexc 369/λem 475 nm, error = SD of fit, n = 1; for membrane activity in the CX4/LCG channel compared with the CF channel: dual-channel, seven independent POPC LUV batches (n = 7), penetratin 15 µM, Pep-1 10 µM, LRLLRW 30 µM, TP10 0.15 µM, 10 mM Hepes, pH 7.5, t-test/ANOVA p < 0.001, melittin: Figure S35 and Table S9
Excerpt: as §1, §2, §3
Vesicles w ere prep ared a s described abov e (se e en try (4) in Table S2 and entry (3) in Table S3) and eluted with freshl y prepared 10 mM Hepes, 175mM glucos e, pH 7.5 i n the size exclusion chromatograph y. For the measurements, an approp riate volume o f the liposome stock solutions was diluted to 2m L in a 10× 10 mm PS cuvette wi th 10 mM Hep es bu ffer and 175 mM glucos e at pH 7.5 to afford 12.5µM POPC ⊃CX4/LCG-LUVs and 12.5 µM POPC⊃CF-LUVs (25 µM POPC total). The cuvette was placed into a thermostatted fluorimeter sample holder at 25.0 °C and gentl y stirred at 300 rpm. The fluorescence intensity w as simultaneous l y r eco rded in the CF chann el ( λ exc = 525 nm, λ em = 545 nm) and in the LCG channel ( λ exc = 369 nm, λ em = 475 nm) with an ex citation slit width of 5 nm and an emission slit width of 5 n m during addition of 20 µL peptide stock solution of varying concentrations at 60 s and 20 µL of a calibration

[3] = assay type: binding; conditions: LCG displacement in 10 mM Hepes, pH 7.0, 25 °C; fluorescence; error = SD of nonlinear fit, n = 1
Experimental: Fluorescence titrations were performed as previously described and the resulting titration curves we re an al yz ed usi ng established pro cedur es . Competitive titrations were eithe r anal yz ed with a fitting function assuming 1:1 host-competitor complexes[3] or with a fitting function involving hi gher complex es with more than on e h ost bound per peptide.[4] In the latter c ase, an identical binding affinity is assumed for all binding sites. […]
Figure S1. a) Fluorescence titration of 0.5 µM LCG ( λex = 369 n m) with varying concentrations of CX4 in 10 mM Hepes, pH 7.0, 25 °C .b) Respective titration curve ( λem = 502 nm) with fitted line . […]
Figure S2. a) Competitive fluorescence titration wit h 0.5 µM LCG, 1 µM CX4 ( λex = 369 nm) and varying concentrations of penetratin in 10 mM Hepes, pH 7.0, 25 °C . b) Respective titration c ur ve (λem = 502 nm) with fitted line .
(also on this page, place not known: analyzed using procedures. were either analyzed host -competitor higher complexes one host case, 700 Intensity Intensity (λex °C. line. 650 0 Intensity 0 Intensity b) curve (λem nm) with line.)

Structure (SMILES)	EC50 [1] [µM]	EC50 [2] [µM]	membrane activity in the CX4/LCG channel compared with the CF channel [2]	K a, binding constant of peptide to CX4 [3]
CC[C@H](C)[C@H](NC(=O)[C@H](CCCCN)NC(=O)[C@H](CCCCN)NC(=O)[C@H](C)NC(=O)[C@H](CC(C)C)NC(=O)[C@H](C)NC(=O)[C@H](C)NC(=O)[C@H](CC(C)C)NC(=O)[C@H](C)NC(=O)[C@H](CCCCN)NC(=O)[C@H](CC(C)C)NC(=O)[C@H](CC(N)=O)NC(=O)[C@@H](NC(=O)[C@H](CCCCN)NC(=O)CNC(=O)[C@H](CC(C)C)NC(=O)[C@H](CC(C)C)NC(=O)[C@H](Cc1ccc(O)cc1)NC(=O)CNC(=O)[C@H](C)N)[C@@H](C)CC)C(=O)N[C@@H](CC(C)C)C(=O)O [TP10]	0.053 ± 0.007	0.78 ± 0.09	significantly higher membrane activity with the CF dye efflux assay	–
CC(C)[C@H](NC(=O)[C@H](CCCCN)NC(=O)[C@H](CCCNC(=N)N)NC(=O)[C@H](CCCCN)NC(=O)[C@H](CCCCN)NC(=O)[C@H](CCCCN)NC(=O)[C@@H]1CCCN1C(=O)[C@H](CCC(N)=O)NC(=O)[C@H](CO)NC(=O)[C@H](Cc1c[nH]c2ccccc12)NC(=O)[C@H](CC(=O)O)NC(=O)[C@@H](NC(=O)[C@H](Cc1c[nH]c2ccccc12)NC(=O)[C@H](Cc1c[nH]c2ccccc12)NC(=O)[C@@H](NC(=O)[C@H](CC(=O)O)NC(=O)[C@H](Cc1c[nH]c2ccccc12)NC(=O)[C@H](Cc1c[nH]c2ccccc12)NC(=O)[C@@H](NC(=O)[C@H](CC(=O)O)NC(=O)[C@@H](N)CCCCN)[C@@H](C)O)[C@@H](C)O)[C@@H](C)O)C(=O)O [Pep‐1] (H-KDTWWDTWWTDWSQPKKKRKV-OH)	> 1000	22 ± 16	significantly higher	(2.8 ± 0.2) × 10^6 M^−1
CC[C@H](C)[C@H](NC(=O)[C@H](CCCCN)NC(=O)[C@@H](NC(=O)[C@@H](N)CCC(N)=O)[C@@H](C)CC)C(=O)N[C@@H](Cc1c[nH]c2ccccc12)C(=O)N[C@@H](Cc1ccccc1)C(=O)N[C@@H](CCC(N)=O)C(=O)N[C@@H](CC(N)=O)C(=O)N[C@@H](CCCNC(=N)N)C(=O)N[C@@H](CCCNC(=N)N)C(=O)N[C@@H](CCSC)C(=O)N[C@@H](CCCCN)C(=O)N[C@@H](Cc1c[nH]c2ccccc12)C(=O)N[C@@H](CCCCN)C(=O)N[C@@H](CCCCN)C(=O)O (H-QIKIWFQNRRMKWKK-OH)	> 1000	28 ± 2	significantly higher	(9.9 ± 1.8) × 10^7 M^−1
CC(C)C[C@H](NC(=O)[C@H](CC(C)C)NC(=O)[C@H](CCCNC(=N)N)NC(=O)[C@@H](N)CC(C)C)C(=O)N[C@@H](CCCNC(=N)N)C(=O)N[C@@H](Cc1c[nH]c2ccccc12)C(N)=O [LRLLRW] (H-LRLLRW-NH2)	49 ± 6	9 ± 0.9	significantly higher	(1.3 ± 0.1) × 10^6 M^−1
